Measurements published in US20240123079A1 (Seagen Inc., priority 2021, published 2024).

Key:
[1] = system: Ls174T; assay: Cancer cell direct cytotoxicity assay (CellTiter-Glo), Ls174T; assay type: cell-based; settings: Homo sapiens, 96 h, free compound, read-out: Compound X50
Description: Bystander activity of ADCs was evaluated using Renca cancer cells and THP1-Dual™ cells (InvivoGen) which contain an IRF-Lucia luciferase reporter. Cells were cultured in RPMI-1640 (Gibco) with 10% heat-inactivated fetal bovine serum, Pen-Strep (100 U/ml-100 μg/ml, Gibco), HEPES (10 mM, Gibco), sodium pyruvate (1 mM, Gibco), MEM non-essential amino acids (1×, Gibco), GlutaMAX (1×, Gibco), and beta-mercaptoethanol (55 μM, Gibco). Renca cells were plated in a 96-well flat bottom tissue culture-treated clear polystyrene plate (Corning Costar #3596) at 50,000 cells per well in 100 μL. On the day following the initial plating, 50,000 THP1-Dual™ cells were added to each well with the indicated concentration of ADC in a total volume of 200 μL. Supernatant was harvested at 48 hours post addition of the THP1-Dual™ cells. To measure Lucia reporter signal, 10 μL of supernatant was combined with 40 μL of QUANTI-Luc™ Luminescence assay reagent (Invivogen PN: rep-qlc1) in a 96-well clear flat bottom tissue culture-treated black polystyrene plate (Corning Costar PN: 3603) and read on a Perkin Elmer Envision plate reader. In some experiments, HEK 293T cells engineered to express a murine protein typically expressed by immune cells (target antigen C— an immune cell antigen) were plated as above instead of Renca tumor cells. Cancer Cell Direct Cytotoxicity Assay
Cancer cells were counted and plated in 40 μL complete growth media in 384-well, white-walled tissue culture treated plates (Corning). Cell plates were incubated at 37° C. and with 5% CO2 overnight to allow the cells to equilibrate. Stock solutions containing ADCs or free drugs were serially diluted in RPMI-1640+20% fetal bovine serum (FBS). 10 μL of each concentration were then added to each cell plate in duplicate. Cells were then incubated at 37° C. and with 5% CO2 for 96 hours, upon which, the cell plates were removed from the incubator and allowed to cool to room temperature for 30 minutes prior to analysis. […] The luminescence of the samples was measured using an EnVision Multimode plate reader (Perkin Elmer, Waltham, MA). […]

[2] = In vivo cytokine assay, plasma of Renca tumor-bearing mice; parameters: species or system mouse; IFNg production in plasma / IL-1b production in plasma / IL-6 production in plasma / IL12p70 production in plasma / IP10 production in plasma / MIP1a production in plasma / MIP1b production in plasma / TNFa production in plasma: unit not given here
Description: Cytokines were measured in mouse plasma harvested at 3, 6, 24, or 48 hours after treatment with compounds or ADCs using a Milliplex MAP mouse cytokine/chemokine magnetic bead panel assay kit (MCYTOMAG-70k custom 11-plex kit: MCP1, MIP1α, MIP1β, TNFα, IFNγ, IL-10, IL-12p70, IL-6, IL-1β, IP10, RANTES) and analyzed using a Luminex™ MAGPIX™ Instrument System. Values that were outside of the standard curve range (<3.2 or […]) were excluded from calculation of the mean values.

**Q.** Which results are given for CCn1nc(C)cc1C(=O)Nc1nc2cc(C(N)=O)cc(OC)c2n1C/C=C/Cn1c(NC(=O)c2cc(C)nn2CC)nc2cc(C(N)=O)cc(OCCCNC)c21 [Compound 12a]?
**A.** IC50 [1]: > 1 µM; IFNg production in plasma ([2]; 0.2 mg/kg, dose #1, 3 h): <3.2; IL12p70 production in plasma ([2]; 0.2 mg/kg, dose #1, 3 h): <3.2; IL-1b production in plasma ([2]; 0.2 mg/kg, dose #1, 3 h): 0.7; IL-6 production in plasma ([2]; 0.2 mg/kg, dose #1, 3 h): 780.0; IL-10 production in plasma ([2]; 0.2 mg/kg, dose #1, 3 h): 15.6; IP10 production in plasma ([2]; 0.2 mg/kg, dose #1, 3 h): 1989.6; MCP-1 production in plasma ([2]; 0.2 mg/kg, dose #1, 3 h): 333.3; MIP1a production in plasma ([2]; 0.2 mg/kg, dose #1, 3 h): 10.3; MIP1b production in plasma ([2]; 0.2 mg/kg, dose #1, 3 h): 727.2; RANTES production in plasma ([2]; 0.2 mg/kg, dose #1, 3 h): <3.2; TNFa production in plasma ([2]; 0.2 mg/kg, dose #1, 3 h): 9.1; IFNg production in plasma ([2]; 0.2 mg/kg, dose #1, 6 h): 4.6; IL12p70 production in plasma ([2]; 0.2 mg/kg, dose #1, 6 h): <3.2; IL-1b production in plasma ([2]; 0.2 mg/kg, dose #1, 6 h): 0.7; IL-6 production in plasma ([2]; 0.2 mg/kg, dose #1, 6 h): 266.1; IL-10 production in plasma ([2]; 0.2 mg/kg, dose #1, 6 h): <3.2; IP10 production in plasma ([2]; 0.2 mg/kg, dose #1, 6 h): 8985.4; MCP-1 production in plasma ([2]; 0.2 mg/kg, dose #1, 6 h): 7790.8; MIP1a production in plasma ([2]; 0.2 mg/kg, dose #1, 6 h): 101.9; MIP1b production in plasma ([2]; 0.2 mg/kg, dose #1, 6 h): 670.7; RANTES production in plasma ([2]; 0.2 mg/kg, dose #1, 6 h): 130.3; TNFa production in plasma ([2]; 0.2 mg/kg, dose #1, 6 h): 8.1; IFNg production in plasma ([2]; 0.2 mg/kg, dose #1, 24 h): <3.2; IL12p70 production in plasma ([2]; 0.2 mg/kg, dose #1, 24 h): <3.2; IL-1b production in plasma ([2]; 0.2 mg/kg, dose #1, 24 h): 3.2; IL-6 production in plasma ([2]; 0.2 mg/kg, dose #1, 24 h): 4.1; IL-10 production in plasma ([2]; 0.2 mg/kg, dose #1, 24 h): <3.2; IP10 production in plasma ([2]; 0.2 mg/kg, dose #1, 24 h): 257.9; MCP-1 production in plasma ([2]; 0.2 mg/kg, dose #1, 24 h): 53.0; MIP1a production in plasma ([2]; 0.2 mg/kg, dose #1, 24 h): <3.2; MIP1b production in plasma ([2]; 0.2 mg/kg, dose #1, 24 h): <3.2; RANTES production in plasma ([2]; 0.2 mg/kg, dose #1, 24 h): 3.2; TNFa production in plasma ([2]; 0.2 mg/kg, dose #1, 24 h): 3.2; IFNg production in plasma ([2]; 0.2 mg/kg, dose #1, 48 h): <3.2; IL12p70 production in plasma ([2]; 0.2 mg/kg, dose #1, 48 h): <3.2; IL-1b production in plasma ([2]; 0.2 mg/kg, dose #1, 48 h): 0.7; IL-6 production in plasma ([2]; 0.2 mg/kg, dose #1, 48 h): 5.6; IL-10 production in plasma ([2]; 0.2 mg/kg, dose #1, 48 h): <3.2; IP10 production in plasma ([2]; 0.2 mg/kg, dose #1, 48 h): 172.8; MCP-1 production in plasma ([2]; 0.2 mg/kg, dose #1, 48 h): 56.8; MIP1a production in plasma ([2]; 0.2 mg/kg, dose #1, 48 h): 10.3; MIP1b production in plasma ([2]; 0.2 mg/kg, dose #1, 48 h): <3.2; RANTES production in plasma ([2]; 0.2 mg/kg, dose #1, 48 h): <3.2; TNFa production in plasma ([2]; 0.2 mg/kg, dose #1, 48 h): 4.3; IFNg production in plasma ([2]; 0.2 mg/kg, dose #2, 6 h): 16.5; IL12p70 production in plasma ([2]; 0.2 mg/kg, dose #2, 6 h): <3.2; IL-1b production in plasma ([2]; 0.2 mg/kg, dose #2, 6 h): 2.7; IL-6 production in plasma ([2]; 0.2 mg/kg, dose #2, 6 h): 410.9; IL-10 production in plasma ([2]; 0.2 mg/kg, dose #2, 6 h): 1.2; IP10 production in plasma ([2]; 0.2 mg/kg, dose #2, 6 h): >10000; MCP-1 production in plasma ([2]; 0.2 mg/kg, dose #2, 6 h): 5244.6; MIP1a production in plasma ([2]; 0.2 mg/kg, dose #2, 6 h): 104.9; MIP1b production in plasma ([2]; 0.2 mg/kg, dose #2, 6 h): 718.6; RANTES production in plasma ([2]; 0.2 mg/kg, dose #2, 6 h): 133.8; TNFa production in plasma ([2]; 0.2 mg/kg, dose #2, 6 h): 10.0; IFNg production in plasma ([2]; 0.6 mg/kg, dose #1, 3 h): <3.2; IL12p70 production in plasma ([2]; 0.6 mg/kg, dose #1, 3 h): <3.2; IL-1b production in plasma ([2]; 0.6 mg/kg, dose #1, 3 h): 0.7; IL-6 production in plasma ([2]; 0.6 mg/kg, dose #1, 3 h): 1899.7; IL-10 production in plasma ([2]; 0.6 mg/kg, dose #1, 3 h): 30.4; IP10 production in plasma ([2]; 0.6 mg/kg, dose #1, 3 h): 4826.2; MCP-1 production in plasma ([2]; 0.6 mg/kg, dose #1, 3 h): 1547.8; MIP1a production in plasma ([2]; 0.6 mg/kg, dose #1, 3 h): 251.5; MIP1b production in plasma ([2]; 0.6 mg/kg, dose #1, 3 h): 2471.0; RANTES production in plasma ([2]; 0.6 mg/kg, dose #1, 3 h): 20.1; TNFa production in plasma ([2]; 0.6 mg/kg, dose #1, 3 h): 21.0; IFNg production in plasma ([2]; 0.6 mg/kg, dose #1, 6 h): 18.3; IL12p70 production in plasma ([2]; 0.6 mg/kg, dose #1, 6 h): 3.1; IL-1b production in plasma ([2]; 0.6 mg/kg, dose #1, 6 h): 5.7; IL-6 production in plasma ([2]; 0.6 mg/kg, dose #1, 6 h): 424.0; IL-10 production in plasma ([2]; 0.6 mg/kg, dose #1, 6 h): 3.8; IP10 production in plasma ([2]; 0.6 mg/kg, dose #1, 6 h): 8828.3; MCP-1 production in plasma ([2]; 0.6 mg/kg, dose #1, 6 h): 12898.6; MIP1a production in plasma ([2]; 0.6 mg/kg, dose #1, 6 h): 137.2; MIP1b production in plasma ([2]; 0.6 mg/kg, dose #1, 6 h): 1050.0; RANTES production in plasma ([2]; 0.6 mg/kg, dose #1, 6 h): 255.0; TNFa production in plasma ([2]; 0.6 mg/kg, dose #1, 6 h): 15.6; IFNg production in plasma ([2]; 0.6 mg/kg, dose #1, 24 h): <3.2; IL12p70 production in plasma ([2]; 0.6 mg/kg, dose #1, 24 h): <3.2; IL-1b production in plasma ([2]; 0.6 mg/kg, dose #1, 24 h): 1.6; IL-6 production in plasma ([2]; 0.6 mg/kg, dose #1, 24 h): 6.1; IL-10 production in plasma ([2]; 0.6 mg/kg, dose #1, 24 h): <3.2
